Assay results: patent publication US20250304620A1, “ANTIMICROBIAL PEPTIDE AND APPLICATION THEREOF” (priority 2023, published 2025)
≈ marks a conversion by molar mass, not a printed value. Marks after values point to notes of the source that are not given here. Non-standard residues stand in square brackets, D forms with d. Residues, ends and D or L forms follow the SMILES beside them. d2Nal = N[C@H](Cc1ccc2ccccc2c1)C(=O)O; d(hLeu) = CC(C)CC[C@@H](N)C(=O)O

Columns and labels:
[1] = tested on: Staphylococcus aureus (NRS 384); assay: microbe, parasite or virus in culture; format: cell-based; conditions: NRS 384
How it was run: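 CLSI broth microdilution with serial twofold dilutions gave MICs against S. aureus NRS 384, with 5 parallel replicates. Levofloxacin and the AMP Cbf-K16 served as positive controls.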

[2] = tested on: Bacillus subtilis ATCC 6633; format: cell-based
How it was run: (§1)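 Five parallel repeats; twofold dilution series of each peptide per US CLSI susceptibility protocol; endpoint = MIC.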

[3] = tested on: Candida albicans ATCC MYA-2876; format: cell-based
How it was run: as §1

[4] = tested on: Candida glabrata ATCC 15126; format: cell-based
How it was run: as §1

[5] = tested on: Candida krusei ATCC 6258; format: cell-based
How it was run: as §1

[6] = tested on: Candida tropicalis ATCC 750; format: cell-based
How it was run: as §1

[7] = tested on: Candida utilis ATCC 9950; format: cell-based
How it was run: as §1

[8] = tested on: Corynebacterium ATCC 7715; format: cell-based
How it was run: as §1

[9] = tested on: Enterococcus ATCC 29212; format: cell-based
How it was run: as §1

[10] = tested on: Escherichia coli ATCC 25922; format: cell-based
How it was run: as §1

[11] = tested on: Klebsiella pneumoniae ATCC 700603; format: cell-based
How it was run: as §1

[12] = tested on: Pseudomonas aeruginosa ATCC 27853; format: cell-based
How it was run: as §1

[13] = tested on: Salmonella typhimurium ATCC 14028; format: cell-based
How it was run: as §1

[14] = tested on: Serratia marcescens ATCC 29021; format: cell-based
How it was run: as §1

[15] = tested on: Staphylococcus aureus ATCC 25923; format: cell-based
How it was run: as §1

[16] = tested on: Trichophyton ATCC MYA-4438; format: cell-based
How it was run: as §1

[17] = tested on: Shigella flexneri ATCC 12022; assay: MIC against clinically common bacterial strain; format: cell-based
How it was run: as §1

[18] = tested on: Methicillin-resistant Staphylococcus aureus (MRSA); format: cell-based; conditions: Methicillin-resistant
How it was run: (§2)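 MICs determined by CLSI broth microdilution with serial twofold dilutions of the antimicrobial peptides against clinical drug-resistant isolates. Each determination was repeated 5 times in parallel.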

[19] = tested on: carbapenem-resistant Escherichia coli (CREC); format: cell-based; conditions: carbapenem-resistant (CREC)
How it was run: as §2

[20] = tested on: carbapenem-resistant Klebsiella pneumoniae (CRKP); format: cell-based; conditions: carbapenem-resistant (CRKP)
How it was run: as §2

[21] = tested on: carbapenem-resistant Pseudomonas aeruginosa (CRPA); format: cell-based; conditions: carbapenem-resistant (CRPA)
How it was run: as §2

[22] = tested on: vancomycin-resistant Enterococcus (VRE); format: cell-based
How it was run: as §2

[23] = tested on: Staphylococcus aureus (NRS 384); conditions: NRS 384, 3 h
Procedure: Trypsin (250 U/mg, pH=8.0) and AMPs (LV-1 to LV-30) were mixed in a ratio of 1:10 (w/w) and added to a reaction buffer (0.2 M sodium phosphate, 1 mM CaCl2), pH 7.5), and then incubated at 37° C. for 3 h.

[24] = tested on: Pseudomonas aeruginosa ATCC 27853; assay: Injectable formulations on mice infected with peritonitis; format: in vivo, ICR mice; conditions: 1 mg/kg via tail vein, twice a day for 3 days, n = 10; for Average survival times (Days): observed for 14 d
How it was run: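 ICR mice of both sexes (10 per group) infected intraperitoneally with 0.2 mL P. aeruginosa ATCC 27853 at 1×10^9 CFU/mL. Injectable formulations dosed by body weight via tail vein twice daily for 3 days; deaths and survival time recorded over 14 d.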

[25] = Serum stability assay (residual level by RP-HPLC); conditions: human

CC(=O)N[C@H](CCCNC(=N)N)C(=O)N[C@H](CCCCN)C(=O)N[C@H](CCC(C)C)C(=O)N[C@H](CCC(C)C)C(=O)N[C@H](Cc1ccc2ccccc2c1)C(=O)N[C@H](CCCNC(=N)N)C(=O)N[C@H](CCC(C)C)C(=O)N[C@H](CCCCN)C(=O)N[C@H](Cc1ccc2ccccc2c1)C(=O)N[C@H](CCCNC(=N)N)C(=O)N[C@H](CCCCN)C(N)=O [LV-14] (Ac-[dR][dK][d(hLeu)][d(hLeu)][d2Nal][dR][d(hLeu)][dK][d2Nal][dR][dK]-NH2)
MIC against Staphylococcus aureus (NRS 384) [1]: 1 µg/mL (≈ 0.592 µM) | MIC Bacillus subtilis ATCC 6633 [2]: 2 µg/mL (≈ 1.18 µM) | MIC Candida albicans ATCC MYA-2876 [3]: 16 µg/mL (≈ 9.48 µM) | MIC Candida glabrata ATCC 15126 [4]: 4 µg/mL (≈ 2.37 µM) | MIC Candida krusei ATCC 6258 [5]: 16 µg/mL (≈ 9.48 µM) | MIC Candida tropicalis ATCC 750 [6]: 8 µg/mL (≈ 4.74 µM) | MIC Candida utilis ATCC 9950 [7]: 4 µg/mL (≈ 2.37 µM) | MIC Corynebacterium ATCC 7715 [8]: 8 µg/mL (≈ 4.74 µM) | MIC Enterococcus ATCC 29212 [9]: 4 µg/mL (≈ 2.37 µM) | MIC Escherichia coli ATCC 25922 [10]: 2 µg/mL (≈ 1.18 µM) | MIC Klebsiella pneumoniae ATCC 700603 [11]: 4 µg/mL (≈ 2.37 µM) | MIC Pseudomonas aeruginosa ATCC 27853 [12]: 4 µg/mL (≈ 2.37 µM) | MIC Salmonella typhimurium ATCC 14028 [13]: 4 µg/mL (≈ 2.37 µM) | MIC Serratia marcescens ATCC 29021 [14]: 8 µg/mL (≈ 4.74 µM) | MIC Staphylococcus aureus ATCC 25923 [15]: 2 µg/mL (≈ 1.18 µM) | MIC Trichophyton ATCC MYA-4438 [16]: 8 µg/mL (≈ 4.74 µM) | MIC Shigella flexneri ATCC 12022 [17]: 4 µg/mL (≈ 2.37 µM) | MIC MRSA [18]: 4 µg/mL (≈ 2.37 µM) | MIC CREC [19]: 8 µg/mL (≈ 4.74 µM) | MIC CRKP [20]: 4 µg/mL (≈ 2.37 µM) | MIC CRPA [21]: 8 µg/mL (≈ 4.74 µM) | MIC VRE [22]: 4 µg/mL (≈ 2.37 µM) | Trypsin MIC [23]: 1 µg/mL | Number of mice that died on each day after infection: day 1 [24]: 1 Mouse | Number of mice that died on each day after infection: day 2 [24]: 2 Mouse | Number of mice that died on each day after infection: day 3 [24]: 0 Mouse | Number of mice that died on each day after infection: day 4 [24]: 1 Mouse | Number of mice that died on each day after infection: day 5 [24]: 1 Mouse | Average survival times (Days) [24]: 8.4** Days | remaining at 12 h, 0.91 mg/mL [25]: 97.1%

CC(=O)N[C@H](CCCNC(=N)N)C(=O)N[C@H](CCCCN)C(=O)N[C@H](C)C(=O)N[C@H](C)C(=O)N[C@H](Cc1ccc2ccccc2c1)C(=O)N[C@H](CCCNC(=N)N)C(=O)N[C@H](C)C(=O)N[C@H](CCCCN)C(=O)N[C@H](Cc1ccc2ccccc2c1)C(=O)N[C@H](CCCNC(=N)N)C(=O)N[C@H](CCCCN)C(N)=O [LV-15] (Ac-[dR][dK][dA][dA][d2Nal][dR][dA][dK][d2Nal][dR][dK]-NH2)
MIC against Staphylococcus aureus (NRS 384) [1]: 1 µg/mL (≈ 0.658 µM) | MIC Bacillus subtilis ATCC 6633 [2]: 4 µg/mL (≈ 2.63 µM) | MIC Candida albicans ATCC MYA-2876 [3]: 8 µg/mL (≈ 5.26 µM) | MIC Candida glabrata ATCC 15126 [4]: 4 µg/mL (≈ 2.63 µM) | MIC Candida krusei ATCC 6258 [5]: 4 µg/mL (≈ 2.63 µM) | MIC Candida tropicalis ATCC 750 [6]: 8 µg/mL (≈ 5.26 µM) | MIC Candida utilis ATCC 9950 [7]: 8 µg/mL (≈ 5.26 µM) | MIC Corynebacterium ATCC 7715 [8]: 8 µg/mL (≈ 5.26 µM) | MIC Enterococcus ATCC 29212 [9]: 4 µg/mL (≈ 2.63 µM) | MIC Escherichia coli ATCC 25922 [10]: 2 µg/mL (≈ 1.32 µM) | MIC Klebsiella pneumoniae ATCC 700603 [11]: 4 µg/mL (≈ 2.63 µM) | MIC Pseudomonas aeruginosa ATCC 27853 [12]: 4 µg/mL (≈ 2.63 µM) | MIC Salmonella typhimurium ATCC 14028 [13]: 2 µg/mL (≈ 1.32 µM) | MIC Serratia marcescens ATCC 29021 [14]: 8 µg/mL (≈ 5.26 µM) | MIC Staphylococcus aureus ATCC 25923 [15]: 2 µg/mL (≈ 1.32 µM) | MIC Trichophyton ATCC MYA-4438 [16]: 8 µg/mL (≈ 5.26 µM) | MIC Shigella flexneri ATCC 12022 [17]: 2 µg/mL (≈ 1.32 µM) | MIC MRSA [18]: 4 µg/mL (≈ 2.63 µM) | MIC CREC [19]: 4 µg/mL (≈ 2.63 µM) | MIC CRKP [20]: 8 µg/mL (≈ 5.26 µM) | MIC CRPA [21]: 8 µg/mL (≈ 5.26 µM) | MIC VRE [22]: 8 µg/mL (≈ 5.26 µM) | Trypsin MIC [23]: 1 µg/mL | Number of mice that died on each day after infection: day 1 [24]: 1 Mouse | Number of mice that died on each day after infection: day 2 [24]: 2 Mouse | Number of mice that died on each day after infection: day 3 [24]: 0 Mouse | Number of mice that died on each day after infection: day 4 [24]: 2 Mouse | Number of mice that died on each day after infection: day 5 [24]: 0 Mouse | Average survival times (Days) [24]: 8.3** Days | remaining at 12 h, 0.91 mg/mL [25]: 97.3%

CC(=O)N[C@H](CCCNC(=N)N)C(=O)N[C@H](CCCCN)C(=O)N[C@@H](C(=O)N[C@@H](C(=O)N[C@H](Cc1ccc2ccccc2c1)C(=O)N[C@H](CCCNC(=N)N)C(=O)N[C@@H](C(=O)N[C@H](CCCCN)C(=O)N[C@H](Cc1ccc2ccccc2c1)C(=O)N[C@H](CCCNC(=N)N)C(=O)N[C@H](CCCCN)C(N)=O)C(C)C)C(C)C)C(C)C [LV-16] (Ac-[dR][dK][dV][dV][d2Nal][dR][dV][dK][d2Nal][dR][dK]-NH2)
MIC against Staphylococcus aureus (NRS 384) [1]: 1 µg/mL (≈ 0.623 µM) | MIC Bacillus subtilis ATCC 6633 [2]: 4 µg/mL (≈ 2.49 µM) | MIC Candida albicans ATCC MYA-2876 [3]: 8 µg/mL (≈ 4.99 µM) | MIC Candida glabrata ATCC 15126 [4]: 16 µg/mL (≈ 9.97 µM) | MIC Candida krusei ATCC 6258 [5]: 4 µg/mL (≈ 2.49 µM) | MIC Candida tropicalis ATCC 750 [6]: 4 µg/mL (≈ 2.49 µM) | MIC Candida utilis ATCC 9950 [7]: 8 µg/mL (≈ 4.99 µM) | MIC Corynebacterium ATCC 7715 [8]: 2 µg/mL (≈ 1.25 µM) | MIC Enterococcus ATCC 29212 [9]: 2 µg/mL (≈ 1.25 µM) | MIC Escherichia coli ATCC 25922 [10]: 1 µg/mL (≈ 0.623 µM) | MIC Klebsiella pneumoniae ATCC 700603 [11]: 2 µg/mL (≈ 1.25 µM) | MIC Pseudomonas aeruginosa ATCC 27853 [12]: 4 µg/mL (≈ 2.49 µM) | MIC Salmonella typhimurium ATCC 14028 [13]: 2 µg/mL (≈ 1.25 µM) | MIC Serratia marcescens ATCC 29021 [14]: 4 µg/mL (≈ 2.49 µM) | MIC Staphylococcus aureus ATCC 25923 [15]: 1 µg/mL (≈ 0.623 µM) | MIC Trichophyton ATCC MYA-4438 [16]: 8 µg/mL (≈ 4.99 µM) | MIC Shigella flexneri ATCC 12022 [17]: 2 µg/mL (≈ 1.25 µM) | MIC MRSA [18]: 4 µg/mL (≈ 2.49 µM) | MIC CREC [19]: 8 µg/mL (≈ 4.99 µM) | MIC CRKP [20]: 2 µg/mL (≈ 1.25 µM) | MIC CRPA [21]: 8 µg/mL (≈ 4.99 µM) | MIC VRE [22]: 2 µg/mL (≈ 1.25 µM) | Trypsin MIC [23]: 1 µg/mL | Number of mice that died on each day after infection: day 1 [24]: 2 Mouse | Number of mice that died on each day after infection: day 2 [24]: 1 Mouse | Number of mice that died on each day after infection: day 3 [24]: 1 Mouse | Number of mice that died on each day after infection: day 4 [24]: 1 Mouse | Number of mice that died on each day after infection: day 5 [24]: 0 Mouse | Average survival times (Days) [24]: 8.1** Days | remaining at 12 h, 0.91 mg/mL [25]: 98.4%
